The text below walks through data of patent US7595403B2, “Benzisothiazol-3-one-carboxylic acid amides as phospholipase inhibitors” (Eli Lilly and Company, priority 2003, dated 2009).

Data set [1] has as its target T1, Recombinant Hepatic Lipase (Homo sapiens, UniProt P11150).
T1 construct: made in house; host or cells: AV12 cells
T1 sequence (P11150 23-499): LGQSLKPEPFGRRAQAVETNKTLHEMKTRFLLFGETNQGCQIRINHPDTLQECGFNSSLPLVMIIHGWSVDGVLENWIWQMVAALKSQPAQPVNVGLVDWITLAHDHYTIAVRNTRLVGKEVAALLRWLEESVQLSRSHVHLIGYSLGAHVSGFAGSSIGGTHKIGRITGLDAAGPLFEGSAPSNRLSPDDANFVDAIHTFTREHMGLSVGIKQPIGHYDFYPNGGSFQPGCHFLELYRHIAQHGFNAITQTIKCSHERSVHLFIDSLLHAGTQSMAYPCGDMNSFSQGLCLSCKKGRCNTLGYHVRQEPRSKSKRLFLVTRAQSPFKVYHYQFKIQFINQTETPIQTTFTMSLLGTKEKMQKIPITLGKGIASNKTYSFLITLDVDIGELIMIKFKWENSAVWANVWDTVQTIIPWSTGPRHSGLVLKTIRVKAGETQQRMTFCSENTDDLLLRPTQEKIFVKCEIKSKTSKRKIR
Nature of the data set: Hepatic Lipase Phospholipase Assay. In kind it is biochemical. Conditions: ThioPEG substrate, DTNB read at 412 nm, pH 8.3, 37° C., HL 12.5 nM. On the procedure:
Hepatic Lipase Phospholipase Assay
Efficacy was determined by testing various compounds of the invention in a hepatic lipase and/or endothelial lipase assay discussed below, and disclosed in U.S. patent application Ser. No. 09/609, 871 filed Jul. 3, 2000 incorporated herein in its entirety for U.S Patent Office purposes.
• Substrate Buffer A: 100 mM Hepes, pH 8.3 at 37° C. • Substrate Buffer B: 100 mM Hepes, pH 8.3 at 37° C. with 6.83 mM Triton X100 • ThioPEG: Molecular wt. of 540 • Recombinant Hepatic Lipase • Thiophospholipid: about 0.42 mM thiophospholipid in chloroform • DTNB Solution: about […] DTNB in DMSO (dimethyl sulfoxide) Hepes Buffer A
For Hepes Buffer A, there is 2.4 g Hepes/100 mL water. Therefore 36 grams of Hepes is dissolved in 1500 mL of water. The mix solution's pH is adjusted to pH83 at 37° C. and brought up to 1500 mL with water. 500 mL of Buffer A is retained for the Protein Buffer.
To the remaining 1000 mL of Hepes Buffer A, 4.49 g of Triton X-100 is added and then the combination mixed on a stir plate. It is optimal that stock Buffer A not be too cold or Triton X-100 will take a long time to go into solution
For 0.42 mM substrate stock, use 0.227 mg of thioPEG/mL of Substrate Buffer B. Approximately 20 mg of sn-1 thiol substituted Phosphatidyl Ethylene Glycol (see Examples for preparation method) is weighed into a vial, such as a scintillation vial. Enough chloroform should be added to make a 2.043 mg/mL solution. Sonicate the solution briefly until well dissolved. Next, pipette 1 mL of chloroform/substrate solution into each scintillation vial. This should give enough substrate for one full 96 well plate. Each vial is dried with nitrogen until solvent removed, swirling each vial simultaneously such that a thin film of substrate will be easily reconstituted in each buffer. Each vial is then frozen.
Daily stock preparation is-performed for 9 mL of substrate (one microtiter plate). On the day of the assay, the substrate vial is removed from the freezer and combined with 9 mL of pre-warmed (37° C.) substrate buffer (the final concentration is 0.227 mg/mL). Place the buffer in a 37° C. water bath. Sonicate for 5 minutes or vortex until solution is clear before use.
The enzyme is stored at −80° C. in 100 or 50 μL portions. A 0.406 mg/mL recombinant hepatic lipase and/or endothelial lipase stock requires a 50-fold dilution. Therefore, to a 50 μl or 100 μl enzyme aliquot, 2450 μl or 4900 μl, respectively, of substrate Buffer A (protein buffer) should be added. The enzyme should then be stored on ice until ready to use. The protein concentration of enzyme is about 0.406 mg/mL.
To make a 20 mg/mL stock solution, 2-3 mg of DTNB is weighed and then mixed with an appropriate amount of 100% DMSO (dimethyl sulfoxide) to make the desired concentration. This mixture is sonicated for five minutes.
The above solution should be diluted 10 fold with substrate Buffer B (concentration now 2 mg/mL). Then to the thioPEG substrate solution, add 60 μl of dilute DTNB per mL of thioPEG substrate solution. Thus for 9 mL of substrate, 540 microliters of dilute DTNB (final concentration in substrate solution=0.11 mg/mL).
The test compound is dissolved in pure DMSO at […]. As shown below in Table 2, assay concentrations are 10, 1, 0.1, 0.33, 0.011, 0.0037, 0.0012 and 0.00041 μM.
Using a spectrometer, DTNB is used as a thiol coloring reagent with an incubator temperature of 37° C. Substrate Buffer B is placed in a 37° C. water bath to pre-warm. The substrate is removed from the freezer and 9 mL of substrate Buffer B, 100 mM Hepes, 6.83 mM Tx-100) is added, sonicated for 5 min. and then kept in a 37° C. water bath. Dilutions of the test compound are next made in preparation for assay.
10 μl of the diluted test compound are transferred via pipette into the wells. Control wells receive 10 μl each of 10% DMSO and enzyme solution, while blank wells receive 10 microliters of 10% DMSO and 10 microliters of saline (no enzyme). […]

On to `CCc1cccc(C)c1CNC(=O)n1sc2ccccc2c1=O` [drawing 18], for which the IC50 in data set [1] came to 237 ± 4 nM.
As to `Cc1ccc(CNC(=O)n2sc3ccccc3c2=O)cc1`, in data set [1], the IC50 is 671 ± 18 nM.
As for `CCCCCCNC(=O)n1sc2cc(Cl)ccc2c1=O`, the half-maximal inhibitory concentration (IC50) in data set [1] was found to be 333 ± 8 nM.
`O=C(NCCCCC1CCCCC1)n1sc2ccccc2c1=O` [drawing 22]: the IC50 in data set [1] came out at 482 ± 21 nM.
On the same count and under the same terms, the value for `CC(C)NC(=O)n1sc2cc(Cl)ccc2c1=O` was 626 ± 20 nM.
`C=CCNC(=O)n1sc2ccccc2c1=O` [Example 3, 3-Oxo-3H-benzo[d]isothiazole-2-carboxylic acid allylamide] registered a melting point of 116 to 119 °C.
The compound `CCCCCNC(=O)n1sc2ccccc2c1=O` [Example 4, 3-Oxo-3H-benzo[d]isothiazole-2-carboxylic acid pentylamide] returned a melting point of 42 to 44 °C.
As to `CCCCCCCCNC(=O)n1sc2ccccc2c1=O`, in data set [1], the IC50 was 649 ± 17 nM.
For `Cc1cccc(CNC(=O)n2sc3ccccc3c2=O)c1`, in data set [1], the IC50 was found to be 409 ± 14 nM.
On to `CCCNC(=O)n1sc2ccccc2c1=O` [Example 2, 3-Oxo-3H-benzo[d]isothiazole-2-carboxylic acid propylamide], for which the melting point is 90 to 91 °C.
Turning to `O=C(NC1CCCCC1)n1sc2cc(Cl)ccc2c1=O`, the 50% inhibitory concentration (IC50) in data set [1] turned out to be 419 ± 7 nM.
For the compound `O=C(NCCCc1ccccc1)n1sc2ccccc2c1=O` [Example 17, 3-Oxo-3H-benzo[d]isothiazole-2-carboxylic acid (3-phenyl-propyl)-amide], the melting point fell in the range of 109 to 111 °C.
For the compound `O=C(NCCCCc1ccccc1)n1sc2ccccc2c1=O` [drawing 21], the half-inhibitory concentration (IC50) in data set [1] was 458 ± 16 nM.
`CCNC(=O)n1sc2ccccc2c1=O` [Example 1, 3-Oxo-3H-benzo[d]isothiazole-2-carboxylic acid ethylamide] returned a melting point of 123 to 124 °C.
For `CCCCCCCNC(=O)n1sc2ccccc2c1=O`, the IC50 in data set [1] is 757 ± 18 nM.
Same read-out and setting: the value for `CC(C)CCCCNC(=O)n1sc2ccccc2c1=O` was 622 ± 19 nM; that for `O=C(NCc1ccccc1)n1sc2cc(Cl)ccc2c1=O` was 893 ± 48 nM; that for `Cc1cccc(C(C)C)c1CNC(=O)n1sc2ccccc2c1=O` [drawing 19] was 238 ± 13 nM.
On to `O=C(NCCCCc1ccccc1)n1sc2ccccc2c1=O` [Example 18, 3-Oxo-3H-benzo[d]isothiazole-2-carboxylic acid (4-phenyl-butyl)-amide], for which the melting point is 119 to 120 °C.
As to `CCCCCCNC(=O)n1sc2ccccc2c1=O`, the IC50 in data set [1] was determined as 724 ± 16 nM.
Take `Cc1cccc(C(C)C)c1CNC(=O)n1sc2ccccc2c1=O` [Example 14, 3-Oxo-3H-benzo[d]isothiazole-2-carboxylic acid 2-isopropyl-6-methyl-benzylamide]: the melting point lay within 102 to 103 °C.
In the case of `O=C(NCCCCC1CCCCC1)n1sc2ccccc2c1=O` [Example 19, 3-Oxo-3H-benzo[d]isothiazole-2-carboxylic acid (4-cyclohexyl-butyl)-amide], the melting point is 76 to 78 °C.
In the case of `O=C(NCCCc1ccccc1)n1sc2ccccc2c1=O` [drawing 20], the half-inhibitory concentration (IC50) in data set [1] was 430 ± 19 nM.
Still for that read-out and setting: the figure for `CCCCCCCCCCCCNC(=O)n1sc2ccccc2c1=O` is 933 ± 34 nM.
`CCc1cccc(C)c1CNC(=O)n1sc2ccccc2c1=O` [Example 13, 3-Oxo-3H-benzo[d]isothiazole-2-carboxylic acid 2-ethyl-6-methyl-benzylamide] displayed a melting point of 102 to 104 °C.
Turning to `O=C(NCCc1ccccc1)n1sc2ccccc2c1=O` [Example 15, 3-Oxo-3H-benzo[d]isothiazole-2-carboxylic acid phenethylamide], the melting point lay within 153 to 155 °C.
For the compound `CCCCCNC(=O)n1sc2cc(Cl)ccc2c1=O`, the IC50 in data set [1] is 532 ± 10 nM.
Consider `CCCCCNC(=O)n1sc2ccccc2c1=O` [drawing 9], for which, in data set [1], the IC50 turned out to be 879 ± 24 nM.
The same measure, in the same setting: the value for `Cc1ccccc1CNC(=O)n1sc2ccccc2c1=O` was 183 ± 6 nM.
